Experimental data: US20150259319A1, “AROMATIC ALKENOIC ACID DERIVATIVES” (Symrise AG, priority 2014, published 2015)

Tested on: human neuroblastoma cells (SH-SY5Y)
Experiment: Serotonin release of SH-SY5Y cells after stimulation (Serotonin-ELISA, standardized to DNA content)
Settings: for Serotonin release [% control]: 3 minutes stimulation in Krebs-Ringer HEPES buffer
From the text: After serotonin release, the cells are harvested with trypsin and, after a vitality test by trypan blue staining, sown in a defined number of cells in 35 mm cell culture dishes.
The cells are lysed with a sodium laurylsarcosinate-containing buffer and the DNA content is ascertained with the aid of a NanoQuant plate (Tecan, Ménnendorf, Switzerland) for standardization of the serotonin release.

Compound | Serotonin release [% control] (0.01 μM compound) | Serotonin release [% control] (0.1 μM compound) | rise in serotonin release compared to the control (1 μM compound) | Serotonin release [% control] (1 μM compound) | Serotonin release [% control] (10 μM compound)
COC(=O)/C=C/C=C/CCc1ccc2c(c1)OCO2 [Compound 4, 2E,4E-Methyl 7-(1,3-benzodioxol-5-yl)hepta-2,4-dienoate] | 129 % control | 123 % control | 240% | 239 % control | 171 % control
O=C(/C=C/C=C/CCc1ccc2c(c1)OCO2)N1CCCCC1 [Compound 3, 2E,4E-7-(1,3-Benzodioxol-5-yl)-1-(1-piperidyl)hepta-2,4-dien-1-one] | 161 % control | 141 % control | 280% | 283 % control | 226 % control
